Measurements from paper PMC11676667, “Pharmacokinetics of Oral Cannabinoid Δ8-Tetrahydrocannabivarin and Its Main Metabolites in Healthy Participants” (Pharmaceuticals, 2024).
Where two headings read alike, the source gives them in different places.

Columns and labels:
[1] = Plasma pharmacokinetics after single oral dose of Δ8-THCV in MCT oil (LC-MS/MS, non-compartmental analysis); type: in vivo, human; conditions: for concentration at 0.5 h / concentration at 1 h / concentration at 2 h / concentration at 4 h / concentration at 6 h / concentration at 8 h / AUC(0-t) / Cmax / MRT / Tmax: human; for concentration at 0.5 h / concentration at 1 h / concentration at 2 h / concentration at 4 h / concentration at 6 h / concentration at 8 h: oral; for AUC(0-t) / Cmax / MRT / Tmax: po; for MRT: read-out: MRT (mean residence time)
Method in brief: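 Healthy participants received single oral Δ8-THCV in MCT oil (50 mg/mL; 12.5-200 mg, or placebo) after a high-fat, high-calorie breakfast, with ≥1-week washout. Plasma (K2EDTA) sampled predose and 0.5-8 h post-dose, assayed by validated LC-MS/MS including metabolites; PK by non-compartmental analysis, sub-LLOQ values set to 0.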

CB2 receptors = test system: CB2 receptors; parameters: method as in PMID 21470208; conditions: in vitro; cited from earlier work
[2] = plasma, 100 mg, 100 mg Δ8-THCV dose, Median (IQ Range)
[3] = plasma, 100 mg, 100 mg Δ8-THCV dose, Mean (SD, %CV)
[4] = plasma, 200 mg, 200 mg Δ8-THCV dose, Mean (SD, %CV)
[5] = plasma, 200 mg, 200 mg Δ8-THCV dose, Median (IQ Range)
[6] = plasma, 12.5 mg, 12.5 mg single oral Δ8-THCV in MCT oil, Mean (±SD)
[7] = plasma, 12.5 mg, 12.5 mg single oral Δ8-THCV in MCT oil, Median (Range)
[8] = plasma, 25 mg, 25 mg single oral Δ8-THCV in MCT oil, Mean (±SD)
[9] = plasma, 25 mg, 25 mg single oral Δ8-THCV in MCT oil, Median (Range)
[10] = plasma, 50 mg, 50 mg single oral Δ8-THCV in MCT oil, Mean (±SD)
[11] = plasma, 50 mg, 50 mg single oral Δ8-THCV in MCT oil, Median (Range)
[12] = plasma, 100 mg, 100 mg single oral Δ8-THCV in MCT oil, Mean (±SD)
[13] = plasma, 100 mg, 100 mg single oral Δ8-THCV in MCT oil, Median (Range)
[14] = plasma, 200 mg, 200 mg single oral Δ8-THCV in MCT oil, Mean (±SD)
[15] = plasma, 200 mg, 200 mg single oral Δ8-THCV in MCT oil, Median (Range)

In the case of `CCCc1cc(O)c2c(c1)OC(C)(C)[C@@H]1CC=C(C)C[C@@H]21` [Δ8-THCV, Δ8-tetrahydrocannabivarin], the concentration at 0.5 h [1, 2] is reported as 0 ng/mL, the concentration at 1 h [1, 3] is reported as 4.2 ng/mL and the concentration at 1 h [1, 2] is reported as 2.1 ng/mL. The concentration at 2 h [1, 3] was 7.1 ng/mL, the concentration at 2 h [1, 2] was 5.5 ng/mL and the concentration at 4 h [1, 3] was 11.4 ng/mL. The concentration at 4 h [1, 2] was 7.3 ng/mL, the concentration at 6 h [1, 3] was 12.3 ng/mL and the concentration at 6 h [1, 2] was 7.7 ng/mL. For the same molecule, the concentration at 8 h [1, 3] was 4.1 ng/mL, the concentration at 8 h [1, 2] was 3.1 ng/mL and the concentration at 0.5 h [1, 4] was 0.1 ng/mL. For the same molecule, the concentration at 0.5 h [1, 5] was 0 ng/mL, the concentration at 1 h [1, 4] was 3.6 ng/mL and the concentration at 1 h [1, 5] was 2 ng/mL. The concentration at 2 h [1, 4] was 21.4 ng/mL, the concentration at 2 h [1, 5] was 14.3 ng/mL and the concentration at 4 h [1, 4] was 29.4 ng/mL. It also gave a concentration at 4 h [1, 5] of 33.3 ng/mL, a concentration at 6 h [1, 4] of 26.6 ng/mL and a concentration at 6 h [1, 5] of 21.8 ng/mL. The concentration at 8 h [1, 4] was 21.2 ng/mL, the concentration at 8 h [1, 5] was 13.4 ng/mL and the AUC(0-t) [1, 6] was 3.5 ng·h/mL. For the same molecule, the Cmax [1, 6] was 1.6 ng/mL, the AUC(0-t) [1, 7] was 2.1 ng·h/mL and the Cmax [1, 7] was 1.1 ng/mL. It also gave an MRT ([1]; plasma, 12.5 mg, 12.5 mg single oral Δ8-THCV in MCT oil, plasma, Mean (±SD)) of 4 h, a Tmax ([1]; plasma, 12.5 mg, 12.5 mg single oral Δ8-THCV in MCT oil, plasma, Mean (±SD), read-out: tmax) of 3.9 h and an MRT ([1]; plasma, 12.5 mg, 12.5 mg single oral Δ8-THCV in MCT oil, plasma, Median (Range)) of 4 h. For the same molecule, the Tmax ([1]; plasma, 12.5 mg, 12.5 mg single oral Δ8-THCV in MCT oil, plasma, Median (Range), read-out: tmax) was 4 h, the AUC(0-t) [1, 8] was 7.4 ng·h/mL and the Cmax [1, 8] was 2.6 ng/mL. For the same molecule, the AUC(0-t) [1, 9] was 5.2 ng·h/mL, the Cmax [1, 9] was 2.1 ng/mL and the MRT ([1]; plasma, 25 mg, 25 mg single oral Δ8-THCV in MCT oil, plasma, Mean (±SD)) was 4.1 h. The Tmax ([1]; plasma, 25 mg, 25 mg single oral Δ8-THCV in MCT oil, plasma, Mean (±SD), read-out: tmax) was 3.8 h, the MRT ([1]; plasma, 25 mg, 25 mg single oral Δ8-THCV in MCT oil, plasma, Median (Range)) was 4.2 h and the Tmax ([1]; plasma, 25 mg, 25 mg single oral Δ8-THCV in MCT oil, plasma, Median (Range), read-out: tmax) was 4 h. For the same molecule, the AUC(0-t) [1, 10] was 27.3 ng·h/mL, the Cmax [1, 10] was 10 ng/mL and the AUC(0-t) [1, 11] was 24.9 ng·h/mL. The Cmax [1, 11] was 10 ng/mL, the MRT ([1]; plasma, 50 mg, 50 mg single oral Δ8-THCV in MCT oil, plasma, Mean (±SD)) was 5.2 h and the Tmax ([1]; plasma, 50 mg, 50 mg single oral Δ8-THCV in MCT oil, plasma, Mean (±SD), read-out: tmax) was 5 h. The MRT ([1]; plasma, 50 mg, 50 mg single oral Δ8-THCV in MCT oil, plasma, Median (Range)) was 5.4 h, the Tmax ([1]; plasma, 50 mg, 50 mg single oral Δ8-THCV in MCT oil, plasma, Median (Range), read-out: tmax) was 6 h and the AUC(0-t) [1, 12] was 65.5 ng·h/mL. It also gave a Cmax [1, 12] of 21.5 ng/mL, an AUC(0-t) [1, 13] of 58.4 ng·h/mL and a Cmax [1, 13] of 22 ng/mL. The MRT ([1]; plasma, 100 mg, 100 mg single oral Δ8-THCV in MCT oil, plasma, Mean (±SD)) was 4.5 h, the Tmax ([1]; plasma, 100 mg, 100 mg single oral Δ8-THCV in MCT oil, plasma, Mean (±SD), read-out: tmax) was 4.2 h and the MRT ([1]; plasma, 100 mg, 100 mg single oral Δ8-THCV in MCT oil, plasma, Median (Range)) was 4.1 h. The Tmax ([1]; plasma, 100 mg, 100 mg single oral Δ8-THCV in MCT oil, plasma, Median (Range), read-out: tmax) was 4 h, the AUC(0-t) [1, 14] was 168 ng·h/mL and the Cmax [1, 14] was 52.9 ng/mL. The AUC(0-t) [1, 15] was 165 ng·h/mL, the Cmax [1, 15] was 51.7 ng/mL and the MRT ([1]; plasma, 200 mg, 200 mg single oral Δ8-THCV in MCT oil, plasma, Mean (±SD)) was 4.7 h. It also gave a Tmax ([1]; plasma, 200 mg, 200 mg single oral Δ8-THCV in MCT oil, plasma, Mean (±SD), read-out: tmax) of 4.7 h, an MRT ([1]; plasma, 200 mg, 200 mg single oral Δ8-THCV in MCT oil, plasma, Median (Range)) of 4.7 h and a Tmax ([1]; plasma, 200 mg, 200 mg single oral Δ8-THCV in MCT oil, plasma, Median (Range), read-out: tmax) of 4 h. For the same molecule, the Tmax ([1]; plasma, across oral Δ8-THCV doses 12.5-200 mg, plasma, read-out: median time-to-maximum concentration (tmax), range across doses) was 3.8 to 5 h, the “number of positive plasma samples” value ([1]; of 504 plasma samples from 15 participants after oral Δ8-THCV) was 236 and the “concentration in representative plasma sample” value ([1]; one subject after oral Δ8-THCV in MCT oil, Figure A1) was 69.8 ng/mL. The “increase of median AUClast every two-fold increase in the dose” value ([1]; oral Δ8-THCV 12.5-200 mg, plasma) was 2.3- to 4.8 fold, the “tmax later after doses greater than 50 mg compared to the 12.5 mg and 25 mg doses” value ([1]; oral Δ8-THCV, plasma) was 1.3 fold and the CB2 receptor activation (CB2 receptors) was “activate CB2 receptors”.
